What was measured:
[1] = tested on: "Komatsuna" (einer Varietät chinesischen Kohls); experiment: Phytotoxicity to "Komatsuna" in the clubroot control test; type: in vivo, "Komatsuna" (Varietät: Misugi)
Source text: (§1) Test der Bekämpfung von Kohlhernie bei "Komatsuna" (einer Varietät chinesischen Kohls):
(§2) Aktive Verbindung: 1,5 Teile; Isopropylhydrogenphosphat (PAP): 0,5 Teile; Ton-Pulver: 98 Teile.
(§3) Die oben angegebenen Stoffe wurden pulverisiert und vermischt, wodurch ein Stäubemittel erhalten wurde.
(§4) Mit Plasmodiophora brassicae infizierte Erde wurde in unglasierte Töpfe mit einem Durchmesser von 21 cm gefüllt, und ein Stäubemittel einer Verbindung gemäß der vorliegenden Erfindung, das wie oben angegeben hergestellt worden war, wurde in einer vorher festgelegten Konzentration gleichmäßig mit der Erde vermischt.
(§5) Samen von "Komatsuna" (Varietät: Misugi) wurden in einer Menge von 20 Körnern pro Topf eingesät. Die Töpfe wurden 4 Wochen in einem auf 20°C gehaltenen klimatisierten Gewächshaus gehalten. Dann wurden die Pflanzen ausgegraben, und der Krankheitszustand wurde nach dem folgenden Maßstab bewertet. Der Erkrankungs-Index und das Verhältnis der erkrankten Pflanzen wurden berechnet.

Plasmodiophora brassicae = experiment: Control of clubroot (Kohlhernie) in "Komatsuna" grown in infected soil, dust mixed into soil; type: in vivo; details: 4 weeks at 20°C
Source text: as §1
Präparat einer aktiven Verbindung:
as §2, §3, §4, §5
3: L₁ = Zahl der Pflanzen, deren Wurzeln durch das Auftreten der Kohlhernie (Kropfkrankheit) sehr stark vergrößert worden waren; 2: L₂ - Zahl der Pflanzen, bei denen Kohlhernie auftrat, jedoch auf die Pfahlwurzeln beschränkt war; 1: L₃ = Zahl der Pflanzen, bei denen geringsfügiges Auftreten von Kohlhernie beobachtet wurde; 0: L₄ = Zahl der gesunden Pflanzen. [formula]

Rosellinia necatrix = experiment: Control of root mould (Wurzelschimmel) in apple, cut twigs in infected soil; type: in vivo; details: Konzentration des Wirkstoffs 0,1 %; 5 ml per 100 ml soil; apple twigs (Star King), 3 weeks at 25°C; score 0 (kein Befall) to 5
Source text: (§6) Aktive Verbindung: 50 Gew.-Teile; Träger: 45 Gew.-Teile einer Mischung aus Diatomeenerde und Kaolin (1:5), Emulgator: 5 Gew.Teile Polyoxyethylenalkylphenylether.
(§7) Die aktive Verbindung, der Träger und der Emulgator in den oben angegebenen Mengen wurden pulverisiert und miteinander zu einem benetzbaren Pulver vermischt. Eine vorher festgegegte Menge des benetzbaren Pulvers wurde mit Wasser vermischt.
Test der Bekämpfung des Wurzelschimmels beim Apfel
In Reiskleie kultivierter Rosellinia necatrix wurde in sterilisierte Erde inokuliert, um eine infizierte Erde herzustellen. Eine wie in Beispiel 5 präparierte aktive Verbindung in vorher festgelegter Konzentration wurde in einer Menge von 5 ml pro 100 ml Erde gleichmäßig in die Erde hineingegossen und ausreichend mit dieser ver mischt. Abgeschnittene Apfelzweige (Varietät: Star King) wurden senkrecht in der Erde eingebettet, so daß die Hälfte jedes Zweiges in der Erde steckte. Die Zweige wurden dann unter Gewächshaus-Bedingungen bei 25°C gehalten. Drei Wochen später wurde der Grad des Befalls der Zweige durch den oben bezeichneten Pilz beurteilt und nach dem Grad der Verletzung anhand der folgenden […] bewertet:
0: Kein Befall; 1: geringfügiger Befall wurde beobachtet; 2: Befall wurde beobachtet auf 3 % bis weniger als 10 % der Oberfläche der Zweige; 3: Befall wurde beobachtet auf 10 % bis weniger als 30 % der Oberfläche der Zweige; 4: Befall wurde beobachtet auf 30 % bis weniger als 50 % der Oberfläche der Zweige; 5: Befall wurde beobachtet auf wenigstens 50 % der Oberfläche der Zweige.

Rhizopus oryzae = experiment: Control of damping-off of rice seedlings, soil drench; type: in vivo; details: 500 ml per box, rice (Kusabue)
Source text: Test der Bekämpfung des Umfallens von Reis-Setzlingen (Wurzelbrand der Keimpflanzen)
Präparat einer Test-Verbindung:
as §6, §7
Sterilisierte Erde wurde mit in Reiskleie kultiviertem Rhizopus oryzae inokuliert. Die Erde wurde in Anzuchtkästen für Sämlinge (60 cm x 40 cm x 3 cm) eingefüllt. Die wie oben angegeben präparierte aktive Verbindung wurde in vorher festgelegter Konzentration in einer Menge von 500 ml pro Kasten gleichmäßig in die Erde hineingegossen. Samen von Reis (Varietät: Kusabue) wurden in einer Menge von 200 g (Trockengewicht) pro Kasten ausgesät und drei Tage in einer Anzucht-Vorrichtung bei 32°C kultiviert. Danach wurden die Anzucht-Kästen in ein Glashaus überführt und in üblicher Weise gehalten. 20 Tage später wurden 200 Setzlinge aus der Mitte jedes Anzuchtkastens herausgezogen, und der Grad der Verletzung wurde nach dem folgenden Maßstab bewertet. Der Bekämpfungs-Index und das Verhältnis der gesunden Setzlinge wurden berechnet.
Grad der Verletzung: 0: n₀ = gesunde Setzlinge; 1: n₁ = Setzlinge, bei denen das Wachstum der Haarwurzeln in geringem Maße schlecht war; 2: n₂ = Setzlinge, bei denen eine keulenartige Verformung teilweise an den Pfahlwurzeln beobachtet wurde; 3: n₃ = Setzlinge, bei denen das Wachstum der Pfahlwurzeln außerordentlich schlecht war und viele keulenartige Verformungen auftraten; 4: n₄ = Setzlinge, die keulenartig geworden waren, mit gehemmtem Wachstum der Pfahlwurzeln und Deckwurzeln.

[2] = Konzentration des Wirkstoffs 0,1 %
[3] = Konzentration des Wirkstoffs 0,15 %

| SMILES | Phytotoxizität ([1]; Menge des Wirkstoffs 5 kg/ha) | Erkrankungs-Index (Plasmodiophora brassicae; Menge des Wirkstoffs 5 kg/ha) | Verhältnis der erkrankten Pflanzen (Plasmodiophora brassicae; Menge des Wirkstoffs 5 kg/ha) [%] | Grad der der Verletzung (Rosellinia necatrix) | Bekämpfungs-Index (Rhizopus oryzae; [2]) [%] | Grad der Verletzung (Rhizopus oryzae; [2]) | Verhältnis der gesunden Setzlinge (Rhizopus oryzae; [2]) | other results |
| --- | --- | --- | --- | --- | --- | --- | --- | --- |
| CCOC(NC(=O)c1cc(Cl)ccc1O)C(Cl)(Cl)Cl (centres unmarked) [Verbindung 1, N-(2,2,2-Trichloro-1-ethoxyethyl)-5-chloro-2-hydroxybenzamid] | keine | 0% | 0 | – | – | – | – | – |
| O=[N+]([O-])c1c(Cl)c(Cl)c(Cl)c(Cl)c1Cl [PCNB handelsüblich, Pentachloronitrobenzol, reference compound] | – | – | – | – | – | – | – | Phytotoxizität ([1]; Menge des Wirkstoffs 60 kg/ha): keine; Erkrankungs-Index (Plasmodiophora brassicae; Menge des Wirkstoffs 60 kg/ha): 58,3%; Verhältnis der erkrankten Pflanzen (Plasmodiophora brassicae; Menge des Wirkstoffs 60 kg/ha): 75% |
| CCCCNC(=O)n1c(NC(=O)OC)nc2ccccc21 [Benomyl handelsüblich, Methyl-1-(butylcarbamoyl)-2-benzimidazolcarbamat, reference compound] | – | – | – | 1 | – | – | – | – |
| O=C(NC(OCCBr)C(Cl)(Cl)Cl)c1ccccc1O (centres unmarked) [B-1, reference compound] | – | – | – | – | 60 | 19,6% | 55,5% | Phytotoxizität ([1]; Menge des Wirkstoffs 20 kg/ha): keine |
| CC(=O)Oc1ccc(Cl)cc1C(=O)NC(OCC(F)(F)F)C(Cl)(Cl)Cl (centres unmarked) [Verbindung 12] | keine | 0% | 0 | 0 | 94 | 3,0% | 90,5% | – |
| CCOC(NC(=O)c1cc(Cl)ccc1OC(C)=O)C(Cl)(Cl)Cl (centres unmarked) [Verbindung 20, N-(2,2,2-Trichloro-1-ethoxyethyl)-2-acetoxy-5-chlorobenzamid] | – | – | – | 0,3 | – | – | – | – |
| O=C(NC(OCC(F)(F)F)C(Cl)(Cl)Cl)c1cc(Cl)ccc1O (centres unmarked) [Verbindung 4, N-[2,2,2-Trichloro-1-(2,2,2-trifluoroethoxy)ethyl]-5-chloro-2-hydroxybenzamid] | keine | 0% | 0 | – | 95 | 2,5% | 91,5% | – |
| O=C(NC(OCC(F)(F)F)C(Cl)(Cl)Cl)c1cc(Br)ccc1O (centres unmarked) [Verbindung 8] | keine | 1,3% | 7 | 0,5 | – | – | – | – |
| C=CCOC(NC(=O)c1cc(Cl)ccc1O)C(Cl)(Cl)Cl (centres unmarked) [Verbindung 2, N-(2,2,2-Trichloro-1-allyloxyethyl)-5-chloro-2-hydroxybenzamid] | keine | 0% | 0 | – | 95 | 2,7% | 90,5% | – |
| N#Cc1c(Cl)c(Cl)c(Cl)c(C#N)c1Cl [TPN handelsüblich, Tetrachloroisophthalsäurenitril, reference compound] | – | – | – | – | – | – | – | Bekämpfungs-Index (Rhizopus oryzae; [3]): 85%; Grad der Verletzung (Rhizopus oryzae; [3]): 7,3%; Verhältnis der gesunden Setzlinge (Rhizopus oryzae; [3]): 75,5% |
| COC(NC(=O)c1cc(Cl)ccc1O)C(Cl)(Cl)Cl (centres unmarked) [Verbindung 13] | – | – | – | 0,5 | 94 | 3,0% | 85,0% | – |
| CCOC(NC(=O)c1ccccc1O)C(Cl)(Cl)Cl (centres unmarked) [A-1, reference compound] | – | – | – | 3 | 43 | 28,3% | 35,5% | Phytotoxizität ([1]; Menge des Wirkstoffs 20 kg/ha): keine |

— patent publication EP0222274A1, “2-Hydroxybenzamides” (NIHON TOKUSHU NOYAKU SEIZO K.K., priority 1985, dated 1987)
